Molecular target: T1, G1 APOL1 (Homo sapiens, UniProt O14791, I384M/S342G)
T1 construct: expressed in transfected cells
T1 sequence (O14791 28-398 S342G/I384M): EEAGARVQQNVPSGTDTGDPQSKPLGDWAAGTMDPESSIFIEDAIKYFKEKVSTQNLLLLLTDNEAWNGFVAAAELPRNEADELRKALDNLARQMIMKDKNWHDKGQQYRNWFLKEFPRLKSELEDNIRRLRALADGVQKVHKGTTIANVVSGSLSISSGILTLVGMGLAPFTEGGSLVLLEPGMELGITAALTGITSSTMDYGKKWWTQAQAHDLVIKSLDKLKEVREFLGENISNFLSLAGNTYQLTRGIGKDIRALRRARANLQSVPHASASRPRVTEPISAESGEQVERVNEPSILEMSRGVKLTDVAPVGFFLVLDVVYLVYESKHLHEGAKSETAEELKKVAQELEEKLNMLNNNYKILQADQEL
Assay: Acute APOL1 Thallium Assay with inducible stable clones of HEK 293 cells
Format: cell-based
Settings: HEK 293 T-Rex inducible stable clone expressing G1 APOL1; read-out: Thallium Assay (IC50)
Text: Acute APOL1 Thallium Assay with Inducible Stable Clones of HEK 293 Cells
Apolipoprotein L1 (APOL1) proteins form potassium-permeable cation pores in the plasma membrane. APOL1 risk variants (G1 and G2) induce greater potassium flux than G0 in HEK293 cells. This assay exploits the permeability of thallium (T1+) through ligand-gated potassium channels. The dye produces a bright fluorescent signal upon binding to T1+ conducted through potassium channels. The intensity of the T1+ signal is proportional to the number of potassium channels in the open state. Therefore, it provides a functional indication of the potassium channel activities. During the initial dye-loading step, the T1+ indicator dye as an acetoxymethyl (AM) ester enters the cells through passive diffusion. Cytoplasm esterases cleave the AM ester and relieve its active thallium-sensitive form. The cells are then stimulated with T1+. The increase of fluorescence in the assay represents the influx of T1+ into the cell specifically through the potassium channel (i.e. through APOL1 pores), providing a functional measurement of potassium channel/pore activity. The Thallium assay is conducted with cells expressing G1 APOL1.
APOL1 Cell Line (HEK T-Rex Stable Inducible Cell Line)
• HEK T-Rex System • Tetracycline (Tet) inducible mammalian expression system. • Stably express the Tet repressor to regulate transcription. • Expression under the full-length CMV promoter. • APOL1 stable inducible cell line Clone used: G1 DC3.25 Tissue Culture Media Cell Culture Medium • DMEM+10% FBS+P/S+5 μg/mL blasticidin+1 μg/mL puromycin. • 500 mL DMEM+55 mL FBS+5 mL P/S+280 μL blasticidin S HCl (10 mg/mL)+56 μL puromycin (10 mg/mL). Cell Assay Medium • DMEM with 2% FBS+penicillin streptomycin. Reagents:
Instruments and Equipment • Nuaire cell culture hood, Cat. No. 540-600 • 37° C./5% CO2 incubator link to robotic arm, Liconic: STX110 • Molecular Devices FLIPR^Tetra High throughput cellular screening system, Cat. No. FT0324, Molecular Devices • ThermoFisher MultiDrop 384, Cat. No. 5840300 • Biotek Microfill, Cat. No. ASF1000A-4145 • BioRad TC10 cell counter, Cat. No. 145-0010 Assay Procedures Cells Scaled Up from Frozen Vials • APOL1 G1 3.25 (HEK293 T-Rex) frozen vials: 5 million cells per vial • Step 1, Day 1: Defrost frozen vial into T-225. • Step 2, Day 5: (when 85% confluent): Split one T-225 at 3×10^6 cells per flask. • Step 3, Day 8: Splits cells to set up for the assay plates as described below. Cell Culture
T-Rex APOL1 HEK cells are split twice per week to keep the confluence state below 85% of the culture flask surface area. Cells can be kept until passage 25.
• DMEM high glucose+10% FBS, +P/S, +5 μg/mL blasticidin, +1 μg/mL puromycin. • 500 mL DMEM, +55 mL FBS, +5 mL P/S, +280 μL blasticidin 10 mg/mL, +56 μL Puromycin 10 mg/mL. Assay Media • Opti-MEM reduced serum medium from Invitrogen. Day 1 Preparation of Cell Assay Plates • Culture medium is removed from the x cm^2 T-flask by aspiration. • The cell monolayer is rinsed with PBS 1× at room temperature. PBS is removed by aspiration. • Cells are trypsinized using Trypsin. • The flasks are incubated at room temperature for 2-3 minutes. • Complete DMEM medium is then added. Cell suspension is then transferred to a 50 mL Falcon polypropylene tube. • Cells are then counted using a BioRad TC10 cell counter and the required amount of cells are centrifuged at 1200 RPM for 5 minutes. Required amount is 1.3×10^6 cells/mL APOL1 T-Rex HEK cells. • The pellet is suspended in the assay medium. • Using the MultiDrop, add 20 μL to each well (corresponds to 26000 cells total per well) of a 384-well black, transparent, flat bottom Poly-D coated plate. • Tetracycline as prepared in the following section is added to the cells before plating to induce APOL1 expression. • Plates are left at room temperature for 20 to 30 minutes before incubation at 37° C. and 5% CO2. […]

Row | Structure (SMILES) | IC50
1 | NC1CC(c2c(-c3ccc(F)cc3)[nH]c3c(F)cc(C(F)(F)F)cc23)C1 (mixture of isomers) [Compound 1, 3-[7-fluoro-2-(4-fluorophenyl)-5-(trifluoromethyl)-1H-indol-3-yl]cyclobutanamine] | > 1 µM
2 | O=C(CCO)NC1CC(c2c(-c3ccc(F)cc3)[nH]c3c(F)cc(C(F)(F)F)cc23)C1 (mixture of isomers) [Compound 2, N-[3-[7-fluoro-2-(4-fluorophenyl)-5-(trifluoromethyl)-1H-indol-3-yl]cyclobutyl]-3-hydroxy-propanamide] | 0.25 to 1 µM
3 | CC(C)(O)C(=O)NC1CC(c2c(-c3ccc(F)cc3)[nH]c3c(F)cc(C(F)(F)F)cc23)C1 (mixture of isomers) [Compound 3, N-[3-[7-fluoro-2-(4-fluorophenyl)-5-(trifluoromethyl)-1H-indol-3-yl]cyclobutyl]-2-hydroxy-2-methyl-propanamide] | 0.25 to 1 µM
4 | Cc1cccc(-c2[nH]c3c(F)cc(F)cc3c2C2CC(N)C2)c1 (mixture of isomers) [Compound 5, 3-[5,7-difluoro-2-(m-tolyl)-1H-indol-3-yl]cyclobutanamine] | 0.25 to 1 µM
5 | Cc1cc(-c2[nH]c3c(F)cc(F)cc3c2C2CC(N)C2)ccc1F (mixture of isomers) [Compound 11, 3-[5,7-difluoro-2-(4-fluoro-3-methyl-phenyl)-1H-indol-3-yl]cyclobutanamine] | 0.25 to 1 µM
6 | CC1(C(=O)NC2CC(Cc3c(-c4ccc(F)cc4)[nH]c4c(F)cc(F)cc34)C2)CCNC1=O (mixture of isomers) [Compound 169] | > 1 µM
7 | CC(CC(=O)N[C@H]1C[C@@H](c2c(-c3ccc(F)cc3)[nH]c3c(F)cc(F)cc32)C1)N1CCOCC1 (mixture of isomers) [Compound 36] | > 1 µM
8 | CC(C(=O)N[C@H]1C[C@@H](c2c(-c3ccc(F)cc3)[nH]c3c(F)cc(F)cc32)C1)n1ccnc1 (mixture of isomers) [Compound 40] | > 1 µM
9 | CC1(C(=O)N[C@H]2C[C@@H](c3c(-c4ccc(F)cc4)[nH]c4c(F)cc(F)cc43)C2)CCC(=O)NC1 (mixture of isomers) [Compound 66] | > 1 µM
10 | CC1(C(=O)N[C@H]2C[C@H](c3c(-c4ccc(F)cc4)[nH]c4c(F)cc(F)cc43)C2)CCC(=O)NC1 (mixture of isomers) [Compound 97] | > 1 µM
11 | CC(CC(=O)N[C@H]1C[C@H](c2c(-c3ccc(F)cc3)[nH]c3c(F)cc(F)cc32)C1)N1CCOCC1 (mixture of isomers) [Compound 102] | > 1 µM

The next lines start with the values.

Row | IC50 | Structure (SMILES)
12 | 0.25 to 1 µM | CC(CO)NCC1CC(c2c(-c3ccc(F)cc3)[nH]c3c(F)cc(F)cc23)C1 (mixture of isomers) [Compound 378]
13 | > 1 µM | CC(NS(C)(=O)=O)C(=O)N[C@H]1C[C@@H](c2c(-c3ccc(F)cc3)[nH]c3c(F)cc(F)cc32)C1 (mixture of isomers) [Compound 55]
14 | > 1 µM | CC(C(=O)N[C@H]1C[C@@H](c2c(-c3ccc(F)cc3)[nH]c3c(F)cc(F)cc32)C1)N(C)C (mixture of isomers) [Compound 77]
15 | > 1 µM | CC(C(=O)N[C@H]1C[C@H](c2c(-c3ccc(F)cc3)[nH]c3c(F)cc(F)cc32)C1)n1ccnc1 (mixture of isomers) [Compound 105]
16 | > 1 µM | CC(C(=O)N[C@H]1C[C@H](c2c(-c3ccc(F)cc3)[nH]c3c(F)cc(F)cc32)C1)N(C)C (mixture of isomers) [Compound 111]
17 | > 1 µM | CC(NS(C)(=O)=O)C(=O)NC[C@H]1C[C@@H](c2c(-c3ccc(F)cc3)[nH]c3c(F)cc(F)cc32)C1 (mixture of isomers) [Compound 242]
18 | > 1 µM | CC(C(=O)NC[C@H]1C[C@@H](c2c(-c3ccc(F)cc3)[nH]c3c(F)cc(F)cc32)C1)N(C)C (mixture of isomers) [Compound 281]
19 | > 1 µM | CC1(C(=O)NC[C@H]2C[C@@H](c3c(-c4ccc(F)cc4)[nH]c4c(F)cc(F)cc43)C2)CCC(=O)NC1 (mixture of isomers) [Compound 306]
20 | > 1 µM | CC(CC(=O)NC[C@H]1C[C@@H](c2c(-c3ccc(F)cc3)[nH]c3c(F)cc(F)cc32)C1)N1CCOCC1 (mixture of isomers) [Compound 318]
21 | > 1 µM | COCC(C)NS(=O)(=O)NC[C@H]1C[C@H](c2c(-c3ccc(F)cc3)[nH]c3c(F)cc(F)cc32)C1 (mixture of isomers) [Compound 342]
